# Data as given in patent US20110269699A1, “CANCER THERAPY” (priority 2008, published 2011).
# Several values for one entry are separate records, joined by “and”; a condition that tells them apart may be missing. Identical values can stand only once.
# Assays:
# [1] = system: 102Eμ-myc/Bcl-2 lymphomas; assay: In vitro cell death analysis, time course; format: cell-based, mouse; conditions: 3.0 nmol/L; up to 72 h
# [2] = Maximum tolerated dose in lymphoma-bearing mice; conditions: i.v. once every 4 days for a total of four injections
# Protocol: For in vivo apoptosis assays, C57BL/6 mice were injected with Eμ-myc lymphomas (5×10^5 cells per animal) and after 10 to 15 days on which lymph nodes became well-palpable romidepsin (5.6 mg/kg) was administered i.v. After the indicated time points, mice were sacrificed and cells were harvested from brachial lymph nodes for fluorescence-activated cell sorting-based assays to measure apoptotic signaling (Lindemann et al., Proc. Nat. Acad. Sci. USA 104:8071-8078, 2007). To assess therapeutic efficacy of romidepsin, C57BL/6 mice were injected with Eμ-myc lymphomas of the indicated genotypes i.v. (5×10^5 cells per animal). Peripheral WBC counts were then monitored until they exceeded 13×10^3/μL (Sysmex Hematology Analyzer K-1000) and romidepsin was administered at 5.6 mg/kg i.v. once every 4 days for a total of four injections. […] Mice in the control cohort received the corresponding amount of vehicle. Cohorts consisted of 8 to 11 mice each, 2 to 3 independently derived lymphomas per genotype. Peripheral WBC counts and body weights were recorded weekly. On signs of major distress or when lymphomas were relapsing as indicated by enlarged brachioaxial lymph nodes, mice were euthanized and a necropsy was done. For analysis of therapeutic efficacy, tumor-induced mortality “events” were recorded. […]
# [3] = system: 102Eμmyc lymphomas; assay: In vivo therapy assay (Kaplan-Meier survival); set-up: species or system C57BL/6 mice; conditions: 5.6 mg/kg i.v. every 4 d, four doses; vehicle 14 d; P<0.0001
# Protocol: (§1) FIG. 4. […] C57BL/6 mice (10 mice per group) bearing (FIG. 4A) 4242Eμ-myc, (FIG. 4B) 229Eμ-myc, (FIG. 4C) 226Eμ-myc, (FIG. 4D) 102Eμ-myc, (FIG. 4E) 4242Eμ-myc/Bcl-2, (FIG. 4F) 229Eμmyc/Bcl-2, (FIG. 4G) 226Eμ-myc/Bcl-2, and (FIG. 4H) 102Eμ-myc/Bcl-2, lymphomas were treated with romidepsin or vehicle. Therapy commenced after WBC counts reached ≧13×10^3/μL. Therapy consisted of either 5.6 mg/kg romidepsin (injected i.v. every 4 d for a total of four doses) or vehicle.
# (§2) For therapy experiments, Eμ-myc lymphomas were transplanted into C57BL/6 mice and treatment with romidepsin or vehicle commenced when WBC counts in the peripheral blood reached a pathologic threshold (>13×10^3/μL).
# (§3) For in vivo apoptosis assays, C57BL/6 mice were injected with Eμ-myc lymphomas (5×10^5 cells per animal) and after 10 to 15 days on which lymph nodes became well-palpable romidepsin (5.6 mg/kg) was administered i.v. After the indicated time points, mice were sacrificed and cells were harvested from brachial lymph nodes for fluorescence-activated cell sorting-based assays to measure apoptotic signaling (Lindemann et al., Proc. Nat. Acad. Sci. USA 104:8071-8078, 2007). To assess therapeutic efficacy of romidepsin, C57BL/6 mice were injected with Eμ-myc lymphomas of the indicated genotypes i.v. (5×10^5 cells per animal). Peripheral WBC counts were then monitored until they exceeded 13×10^3/μL (Sysmex Hematology Analyzer K-1000) and romidepsin was administered at 5.6 mg/kg i.v. once every 4 days for a total of four injections. […] Mice in the control cohort received the corresponding amount of vehicle. Cohorts consisted of 8 to 11 mice each, 2 to 3 independently derived lymphomas per genotype. Peripheral WBC counts and body weights were recorded weekly. On signs of major distress or when lymphomas were relapsing as indicated by enlarged brachioaxial lymph nodes, mice were euthanized and a necropsy was done. For analysis of therapeutic efficacy, tumor-induced mortality “events” were recorded. Kaplan-Meier analysis was done and comparisons made using the log-rank (Mantel-Cox) test (MedCalc software version 8.0.2.0).
# [4] = system: 229Eμ-myc lymphomas; assay: In vivo therapy assay (Kaplan-Meier survival); set-up: species or system C57BL/6 mice; conditions: 5.6 mg/kg i.v. every 4 d, four doses; vehicle 20 days; P<0.0001
# Protocol: as §1, §2, §3
# [5] = system: 4242Eμ-myc lymphomas; assay: In vivo therapy assay (Kaplan-Meier survival); set-up: species or system C57BL/6 mice; conditions: 5.6 mg/kg i.v. every 4 d, four doses; vehicle 19 d; P<0.0003
# Protocol: as §1, §2, §3
# [6] = system: 229Eμ-myc/Bcl-2 lymphomas; assay: In vivo therapy assay (Kaplan-Meier survival); set-up: species or system C57BL/6 mice; conditions: 5.6 mg/kg i.v. every 4 d, four doses
# Protocol: as §1, §2, §3
# [7] = system: 226Eμ-myc lymphomas; assay: In vivo therapy assay (Kaplan-Meier survival); set-up: species or system C57BL/6 mice; conditions: 5.6 mg/kg i.v. every 4 d, four doses; vehicle 15 d; P<0.0001
# Protocol: as §1, §2, §3
# [8] = system: 102Eμ-myc/Bcl-2 lymphomas; assay: In vivo therapy assay (Kaplan-Meier survival); set-up: species or system C57BL/6 mice; conditions: 5.6 mg/kg i.v. every 4 d, four doses
# Protocol: as §1, §2, §3
# [9] = system: 4242Eμ-myc/Bcl-2 lymphomas; assay: In vivo therapy assay (Kaplan-Meier survival); set-up: species or system C57BL/6 mice; conditions: 5.6 mg/kg i.v. every 4 d, four doses
# Protocol: as §1, §2, §3
# [10] = system: 226Eμ-myc/Bcl-2 lymphomas; assay: In vivo therapy assay (Kaplan-Meier survival); set-up: species or system C57BL/6 mice; conditions: 5.6 mg/kg i.v. every 4 d, four doses
# Protocol: as §1, §2, §3
# [11] = system: 4242Eμ-myc lymphomas; assay: In vitro cell death analysis (parental control of the Bcl-XL experiment); format: cell-based, mouse
# Protocol: To determine if increased expression of Bcl-XL could confer resistance to romidepsin, 4242Eμ-myc/Bcl-XL lymphomas were produced and tested for sensitivity to HDACi.
# Eμ-myc lymphoma cells (5×10^5/mL) were incubated in the presence of the indicated compounds for 20 h in 1 mL cell culture medium in 24-well plates (Greiner Bio-One). Viability of cells as measured by trypan blue exclusion assay, propidium iodide uptake, Annexin V staining, cell cycle analysis, or tetramethylrhodamine ethyl ester staining were done as described (Lindemann et al., Proc. Nat. Acad. Sci. USA 104:8071-8078, 2007).
# [12] = system: Eμ-myc lymphomas; assay: In vitro cell death analysis (propidium iodide staining, loss of MOMP); format: cell-based, mouse
# Protocol: (§4) Three different primary Eμ-myc lymphomas overexpressing Bcl-2 and control vector-transduced Eμ-myc cells were tested for sensitivity to the histone deacetylase inhibitors (HDACi) oxamflatin and romidepsin.
# (§5) The primary function of prosurvival Bcl-2 proteins is to inhibit the activity of Bak and Bax proteins and thereby protect the mitochondrial membrane from damage (Cory et al., Nat. Rev. Cancer 2:647-656, 2002). To determine if the induction of apoptosis mediated by romidepsin in 4242Eμ-myc/Bcl-2 and 229Eμ-myc/Bcl-2 lymphomas was via perturbation of the mitochondrial membrane or through some other mechanism, HDACi-induced mitochondrial outer membrane permeabilization (MOMP) was quantitated by staining with tetramethylrhodamine ethyl ester (Molecular Probes).
# (§6) […] Viability of cells as measured by trypan blue exclusion assay, propidium iodide uptake, Annexin V staining, cell cycle analysis, or tetramethylrhodamine ethyl ester staining were done as described (Lindemann et al., Proc. Nat. Acad. Sci. USA 104:8071-8078, 2007).
# [13] = system: Eμ-myc/Bcl-2 lymphomas; assay: as above; format: cell-based, mouse; conditions: 24-h dose-response assay; Bcl-2 overexpressing
# Protocol: as §4, §5, §6
# [14] = system: Eμ-myc lymphomas; assay: In vivo apoptosis assay; set-up: species or system C57BL/6 mice; conditions: all four Eμ-myc lymphomas in lymph nodes; 5.6 mg/kg i.v.; 24-h time course
# Protocol: as §3
# [15] = system: 4242Eμ-myc/Bcl-2 lymphomas; assay: In vivo apoptosis assay; set-up: species or system C57BL/6 mice; conditions: 5.6 mg/kg i.v.; later time points (>24 h)
# Protocol: as §3
# [16] = system: Eμ-myc lymphomas; assay: In vivo therapy assay (survival); set-up: species or system C57BL/6 mice; conditions: 5.6 mg/kg i.v. every 4 d, four doses
# Protocol: as §2
# For in vivo apoptosis assays, C57BL/6 mice were injected with Eμ-myc lymphomas (5×10^5 cells per animal) and after 10 to 15 days on which lymph nodes became well-palpable romidepsin (5.6 mg/kg) was administered i.v. After the indicated time points, mice were sacrificed and cells were harvested from brachial lymph nodes for fluorescence-activated cell sorting-based assays to measure apoptotic signaling (Lindemann et al., Proc. Nat. Acad. Sci. USA 104:8071-8078, 2007). To assess therapeutic efficacy of romidepsin, C57BL/6 mice were injected with Eμ-myc lymphomas of the indicated genotypes i.v. (5×10^5 cells per animal). Peripheral WBC counts were then monitored until they exceeded 13×10^3/μL (Sysmex Hematology Analyzer K-1000) and romidepsin was administered at 5.6 mg/kg i.v. once every 4 days for a total of four injections. […] Mice in the control cohort received the corresponding amount of vehicle. Cohorts consisted of 8 to 11 mice each, 2 to 3 independently derived lymphomas per genotype. Peripheral WBC counts and body weights were recorded weekly. […] For analysis of therapeutic efficacy, tumor-induced mortality “events” were recorded. […]
substance,measurement,setting,value
"(1S,4S,10S,16E,21R)-7-[(2Z)-ethylidene]-4,21-diisopropyl-2-oxa-12,13-dithia-5,8,20,23-tetraazabicyclo[8.7.6]tricos-16-ene-3,6,9,19,22-pentanone [Romidepsin]",cell killing in time course,[1],remained relatively insensitive
same,maximum tolerated dose,[2],5.6 mg/kg
same,median survival,[3],22 days
same,median survival,[4],30 days
same,median survival,[5],28 days
same,survival of mice compared with vehicle-treated mice,[6],significantly extended the survival
same,median survival,"[6]; vehicle 18 d, P<0.0001",30 days
same,median survival,[7],19.5 days
same,therapeutic benefit (survival),[8],little or no therapeutic benefit
same,median survival,"[8]; vehicle 11 d, P<0.07",14.5 days
same,survival of mice compared with vehicle-treated mice,[9],significantly extended the survival
same,median survival,"[9]; vehicle 12 d, P<0.0001",22.5 days
same,therapeutic benefit (survival),[10],little or no therapeutic benefit
same,median survival,"[10]; vehicle 16 d, P=0.86",16 days
same,plasma membrane integrity and mitochondrial function,[11]; increasing concentrations over 24 h,dose-dependent loss of plasma membrane integrity and mitochondrial function
same,cell cycle analysis: DNA fragmentation,[11]; increasing doses,DNA fragmentation occurred
same,cell killing in time course,"[11]; parental Eμ-myc lymphomas, within the first 24 h, 3 nmol/L romidepsin or 0.1 μmol/L oxamflatin",effectively killed
same,"cell killing (outer cell membrane damage, loss of mitochondrial membrane potential)",[12]; 24-h dose-response assay,could effectively kill
same,concentration of HDACi required to kill ˜70% of Eμ-myc lymphomas following 24-h treatment,[12]; 24-h treatment,3.0 nmol/L and 3 nmol/L
same,"cell killing (outer cell membrane damage, loss of mitochondrial membrane potential)",[13],but not Eμ-myc/Bcl-2 lymphomas
same,"apoptosis in vivo (outer cell membrane damage, DNA fragmentation)",[14],sensitive to romidepsin
same,apoptosis in vivo,[15],did undergo apoptosis at later time points
same,survival of mice compared with vehicle-treated mice,[16],significantly extended
